What was measured:
[1] = for mass density / electrical conductivity / viscosity: 100 kPa, Liquid; for mass density: Vibrating tube method; for surface tension liquid-gas: pt plate; for electrical conductivity: Alternating current cell with electrodes; for viscosity: Falling or rolling sphere viscometry
[2] = xn = mol fraction of the nth substance listed; settings: 100 kPa, Liquid, Vibrating tube method, x2 = 0

CC#N [acetonitrile]
[1]
Settings | mass density [kg/m3]
288.15 K | 787.33
293.15 K | 781.96
298.15 K | 776.61
303.15 K | 771.18
308.15 K | 765.73
313.15 K | 760.25
318.15 K | 754.72
323.15 K | 749.16

C[n+]1ccn(CCCC#N)c1.F[B-](F)(F)F [1-butyronitrile-3-methylimidazolium tetrafluoroborate]
[1]
Settings | electrical conductivity [S/m] | mass density [kg/m3] | surface tension liquid-gas [mN/m] | viscosity [mPa·s]
288.15 K | 0.058 | 1316.07 | 49.1 | 590.6
293.15 K | 0.085 | 1312.33 | 48.7 | 417.9
298.15 K | 0.123 | 1308.61 | 48.4 | 302.6
303.15 K | 0.171 | 1304.81 | 48.1 | 223.3
308.15 K | 0.231 | 1301.05 | 47.7 | 169.9
313.15 K | 0.305 | 1297.32 | 47.4 | 128.7
318.15 K | 0.393 | 1293.59 | 47.1 | 100.6
323.15 K | 0.498 | 1289.86 | 46.8 | 79.82

CC#N [acetonitrile] + C[n+]1ccn(CCCC#N)c1.F[B-](F)(F)F
[2]
Settings | mass density [kg/m3]
288.15 K | 787.33
293.15 K | 781.96
298.15 K | 776.61
303.15 K | 771.18
308.15 K | 765.73
313.15 K | 760.25
318.15 K | 754.72
323.15 K | 749.16
